According to ChEMBL document CHEMBL5291721, “A preclinical secondary pharmacology resource illuminates target-adverse drug reaction associations of marketed drugs” (Nat Commun, 2023):

Key:
[1] = target: T1, Alpha-1A adrenergic receptor (Homo sapiens, UniProt P35348); format: functional, cell-based
T1 sequence (P35348 whole entry): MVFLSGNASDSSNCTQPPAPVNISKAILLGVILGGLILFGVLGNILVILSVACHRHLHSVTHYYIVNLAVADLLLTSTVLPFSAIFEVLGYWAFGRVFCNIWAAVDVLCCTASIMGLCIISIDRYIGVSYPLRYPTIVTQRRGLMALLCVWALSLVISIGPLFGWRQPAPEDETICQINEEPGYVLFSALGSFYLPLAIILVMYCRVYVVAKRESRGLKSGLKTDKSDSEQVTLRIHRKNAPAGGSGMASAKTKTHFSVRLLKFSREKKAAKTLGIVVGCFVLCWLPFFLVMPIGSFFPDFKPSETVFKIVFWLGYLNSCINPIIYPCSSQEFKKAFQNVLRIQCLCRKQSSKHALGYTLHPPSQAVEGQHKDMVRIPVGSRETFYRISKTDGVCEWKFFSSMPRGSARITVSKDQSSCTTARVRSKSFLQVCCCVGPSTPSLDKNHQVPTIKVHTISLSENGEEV

Vasopressin V2 receptor = Vasopressin V2 receptor (Homo sapiens, UniProt P30518)
Sequence of Vasopressin V2 receptor (P30518 whole entry): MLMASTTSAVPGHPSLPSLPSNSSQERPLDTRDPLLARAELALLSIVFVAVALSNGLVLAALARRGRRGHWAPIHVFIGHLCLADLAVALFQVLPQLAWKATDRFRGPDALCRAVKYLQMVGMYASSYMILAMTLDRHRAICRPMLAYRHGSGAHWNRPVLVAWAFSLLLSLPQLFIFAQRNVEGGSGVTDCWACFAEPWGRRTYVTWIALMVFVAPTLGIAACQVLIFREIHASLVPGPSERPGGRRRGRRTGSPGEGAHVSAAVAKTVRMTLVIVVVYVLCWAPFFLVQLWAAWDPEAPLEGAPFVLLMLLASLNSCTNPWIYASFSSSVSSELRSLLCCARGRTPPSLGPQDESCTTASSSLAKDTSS

[2] = target: T2, Muscarinic acetylcholine receptor M2 (Homo sapiens, UniProt P08172); format: functional, cell-based
T2 sequence (P08172 whole entry): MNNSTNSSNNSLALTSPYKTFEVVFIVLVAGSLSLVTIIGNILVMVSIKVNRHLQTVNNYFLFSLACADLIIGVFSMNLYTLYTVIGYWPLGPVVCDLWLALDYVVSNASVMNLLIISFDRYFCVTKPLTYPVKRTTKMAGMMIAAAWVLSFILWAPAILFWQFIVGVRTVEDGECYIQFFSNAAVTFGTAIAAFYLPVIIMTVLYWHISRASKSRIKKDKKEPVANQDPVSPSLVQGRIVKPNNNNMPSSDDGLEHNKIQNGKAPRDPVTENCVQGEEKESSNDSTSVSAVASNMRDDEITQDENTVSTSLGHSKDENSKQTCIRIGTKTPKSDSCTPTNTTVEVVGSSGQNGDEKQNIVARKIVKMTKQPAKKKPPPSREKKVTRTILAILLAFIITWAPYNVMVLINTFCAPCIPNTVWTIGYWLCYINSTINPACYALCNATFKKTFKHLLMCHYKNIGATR

Estrogen receptor = target: T3, Estrogen receptor (Homo sapiens, UniProt P03372)
T3 sequence (P03372 whole entry): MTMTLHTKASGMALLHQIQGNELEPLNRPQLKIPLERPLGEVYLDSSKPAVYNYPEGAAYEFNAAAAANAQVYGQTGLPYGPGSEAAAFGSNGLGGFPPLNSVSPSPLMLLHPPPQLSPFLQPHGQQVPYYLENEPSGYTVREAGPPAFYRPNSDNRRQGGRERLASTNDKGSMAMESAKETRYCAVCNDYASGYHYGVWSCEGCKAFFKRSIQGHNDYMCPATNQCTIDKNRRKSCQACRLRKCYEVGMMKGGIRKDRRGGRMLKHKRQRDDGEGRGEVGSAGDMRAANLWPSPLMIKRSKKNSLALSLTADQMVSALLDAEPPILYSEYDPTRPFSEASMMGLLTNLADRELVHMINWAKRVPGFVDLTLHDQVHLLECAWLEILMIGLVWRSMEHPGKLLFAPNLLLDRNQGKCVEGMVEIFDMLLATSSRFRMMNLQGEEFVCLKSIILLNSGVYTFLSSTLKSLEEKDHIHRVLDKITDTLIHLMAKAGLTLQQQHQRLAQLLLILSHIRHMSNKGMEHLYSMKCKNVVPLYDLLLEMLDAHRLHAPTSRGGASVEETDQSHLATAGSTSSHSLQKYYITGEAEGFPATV

[3] = target: Voltage-gated inwardly rectifying potassium channel KCNH2 (Homo sapiens, UniProt Q12809); format: functional; details: read-out: AC50
Sequence of Voltage-gated inwardly rectifying potassium channel KCNH2 (Q12809 whole entry): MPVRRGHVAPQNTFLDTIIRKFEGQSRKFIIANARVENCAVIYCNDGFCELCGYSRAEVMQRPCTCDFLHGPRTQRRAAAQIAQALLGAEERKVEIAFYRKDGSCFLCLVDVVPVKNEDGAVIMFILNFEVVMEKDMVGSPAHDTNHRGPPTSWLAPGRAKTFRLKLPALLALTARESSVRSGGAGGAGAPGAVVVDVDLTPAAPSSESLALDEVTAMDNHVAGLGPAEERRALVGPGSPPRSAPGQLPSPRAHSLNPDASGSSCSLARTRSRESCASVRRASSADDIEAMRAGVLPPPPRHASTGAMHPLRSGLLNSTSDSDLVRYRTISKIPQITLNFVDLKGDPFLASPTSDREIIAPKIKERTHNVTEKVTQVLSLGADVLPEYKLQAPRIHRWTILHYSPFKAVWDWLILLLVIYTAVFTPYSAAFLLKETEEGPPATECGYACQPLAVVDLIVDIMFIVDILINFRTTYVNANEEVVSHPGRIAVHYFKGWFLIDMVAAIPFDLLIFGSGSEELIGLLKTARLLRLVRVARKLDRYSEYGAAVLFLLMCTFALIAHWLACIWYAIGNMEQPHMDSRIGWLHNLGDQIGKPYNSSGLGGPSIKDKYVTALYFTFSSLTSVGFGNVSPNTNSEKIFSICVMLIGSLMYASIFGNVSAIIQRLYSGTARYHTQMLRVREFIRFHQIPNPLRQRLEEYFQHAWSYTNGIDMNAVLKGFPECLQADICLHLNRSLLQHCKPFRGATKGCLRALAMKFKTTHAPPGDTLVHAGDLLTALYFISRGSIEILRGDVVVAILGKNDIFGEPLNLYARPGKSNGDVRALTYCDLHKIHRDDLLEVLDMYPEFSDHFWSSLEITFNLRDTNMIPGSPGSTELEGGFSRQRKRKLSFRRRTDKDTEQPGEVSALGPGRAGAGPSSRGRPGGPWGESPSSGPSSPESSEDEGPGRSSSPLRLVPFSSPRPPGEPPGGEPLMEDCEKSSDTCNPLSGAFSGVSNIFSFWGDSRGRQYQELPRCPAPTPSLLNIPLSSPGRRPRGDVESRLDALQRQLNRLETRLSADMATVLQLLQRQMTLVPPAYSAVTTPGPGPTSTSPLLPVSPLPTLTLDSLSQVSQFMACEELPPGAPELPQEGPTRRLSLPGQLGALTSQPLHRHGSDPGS

[4] = target: Delta-type opioid receptor (Homo sapiens, UniProt P41143)
Sequence of Delta-type opioid receptor (P41143 whole entry): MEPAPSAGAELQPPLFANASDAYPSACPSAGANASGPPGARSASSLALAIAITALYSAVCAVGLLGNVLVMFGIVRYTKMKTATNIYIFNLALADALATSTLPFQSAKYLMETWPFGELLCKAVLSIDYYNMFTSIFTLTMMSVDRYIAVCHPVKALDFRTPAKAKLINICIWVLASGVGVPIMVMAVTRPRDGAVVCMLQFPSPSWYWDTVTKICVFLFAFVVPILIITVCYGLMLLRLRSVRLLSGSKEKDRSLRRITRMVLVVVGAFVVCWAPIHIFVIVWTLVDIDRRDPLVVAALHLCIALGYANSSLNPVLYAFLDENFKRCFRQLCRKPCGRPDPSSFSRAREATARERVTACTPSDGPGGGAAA

Progesterone receptor = target: T4, Progesterone receptor (Homo sapiens, UniProt P06401); format: functional
T4 sequence (P06401 whole entry): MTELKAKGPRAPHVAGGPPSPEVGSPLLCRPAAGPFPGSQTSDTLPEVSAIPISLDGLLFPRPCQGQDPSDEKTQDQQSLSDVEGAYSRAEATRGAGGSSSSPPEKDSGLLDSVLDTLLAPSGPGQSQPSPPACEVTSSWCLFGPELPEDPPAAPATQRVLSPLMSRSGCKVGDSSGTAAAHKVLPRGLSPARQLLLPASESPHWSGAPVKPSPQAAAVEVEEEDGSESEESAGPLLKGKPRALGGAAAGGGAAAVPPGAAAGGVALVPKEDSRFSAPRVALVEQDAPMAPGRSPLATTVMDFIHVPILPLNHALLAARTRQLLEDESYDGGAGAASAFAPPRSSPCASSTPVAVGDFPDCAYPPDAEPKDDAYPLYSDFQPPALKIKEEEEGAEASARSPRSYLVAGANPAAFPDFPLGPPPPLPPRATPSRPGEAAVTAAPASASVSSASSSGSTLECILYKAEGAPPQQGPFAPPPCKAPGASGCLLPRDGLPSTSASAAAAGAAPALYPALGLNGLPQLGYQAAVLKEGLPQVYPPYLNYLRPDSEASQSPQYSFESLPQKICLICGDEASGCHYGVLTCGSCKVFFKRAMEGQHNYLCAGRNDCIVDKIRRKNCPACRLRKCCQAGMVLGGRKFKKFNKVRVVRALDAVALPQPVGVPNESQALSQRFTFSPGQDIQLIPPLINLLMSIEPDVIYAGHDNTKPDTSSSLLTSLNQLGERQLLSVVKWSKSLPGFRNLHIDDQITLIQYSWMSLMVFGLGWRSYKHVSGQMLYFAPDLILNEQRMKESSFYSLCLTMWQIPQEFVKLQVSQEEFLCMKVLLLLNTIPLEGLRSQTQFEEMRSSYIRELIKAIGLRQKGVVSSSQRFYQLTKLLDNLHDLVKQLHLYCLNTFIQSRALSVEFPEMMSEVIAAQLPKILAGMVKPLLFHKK
Also: assay procedure not described here.

CC(C(=O)O)c1ccc(N2Cc3ccccc3C2=O)cc1 (stereo not given) [INDOPROFEN] was tested, and the AC50 [1] was > 30 µM, the AC50 (Vasopressin V2 receptor) was > 30 µM and the AC50 [2] was > 30 µM. For the same molecule, the AC50 (Estrogen receptor) was > 30 µM, the AC50 [3] was > 30 µM and the AC50 [4] was > 30 µM. The AC50 (Progesterone receptor) was > 30 µM.
For CC(C)OC(=O)CCC/C=C\C[C@@H]1[C@@H](CC[C@@H](O)CCc2ccccc2)[C@H](O)C[C@@H]1O [LATANOPROST], the AC50 [1] was > 30 µM, the AC50 (Vasopressin V2 receptor) was > 30 µM and the AC50 [2] was > 30 µM. The AC50 (Estrogen receptor) was > 30 µM, the AC50 [3] was > 30 µM and the AC50 [4] was > 30 µM. For the same molecule, the AC50 (Progesterone receptor) was > 30 µM.
For CN1C(=O)C(O)N=C(c2ccccc2Cl)c2cc(Cl)ccc21 (stereo not given) [LORMETAZEPAM], the AC50 [1] was > 30 µM, the AC50 (Vasopressin V2 receptor) was > 30 µM and the AC50 (Estrogen receptor) was > 30 µM. The AC50 [3] was > 30 µM, the AC50 [4] was > 30 µM and the AC50 (Progesterone receptor) was > 30 µM.
CC(C)=CCC/C(C)=C/C=C/C(C)=C/C=C/C(C)=C/C=C/C=C(C)/C=C/C=C(C)/C=C/C=C(\C)CCC=C(C)C [LYCOPENE] was tested, and the AC50 [1] was > 30 µM, the AC50 (Vasopressin V2 receptor) was > 30 µM and the AC50 [2] was > 30 µM. The AC50 (Estrogen receptor) was > 10 µM, the AC50 [3] was > 30 µM and the AC50 [4] was > 30 µM. The AC50 (Progesterone receptor) was 6.2 µM.
In the case of CCC1(CC)C(=O)NCC(C)C1=O (stereo not given) [METHYPRYLON], the AC50 [1] is reported as > 30 µM, the AC50 (Vasopressin V2 receptor) is reported as > 30 µM and the AC50 [2] is reported as > 30 µM. The AC50 (Estrogen receptor) was > 30 µM, the AC50 [3] was > 30 µM and the AC50 [4] was > 30 µM. The AC50 (Progesterone receptor) was > 30 µM.
CCOC(=O)[N-]c1cn(N2CCOCC2)n[o+]1 [MOLSIDOMINE] was tested, and the AC50 [1] was > 30 µM, the AC50 (Vasopressin V2 receptor) was > 30 µM and the AC50 [2] was > 30 µM. For the same molecule, the AC50 (Estrogen receptor) was > 30 µM, the AC50 [3] was > 30 µM and the AC50 [4] was > 10 µM. For the same molecule, the AC50 (Progesterone receptor) was > 30 µM.
OC(CNCC(O)C1CCc2cc(F)ccc2O1)C1CCc2cc(F)ccc2O1 (stereo not given) [NEBIVOLOL] was tested, and the AC50 [1] was > 30 µM, the AC50 (Vasopressin V2 receptor) was 29 µM and the AC50 [2] was > 10 µM. The AC50 (Estrogen receptor) was > 30 µM, the AC50 [3] was 0.83 µM and the AC50 [4] was > 30 µM. The AC50 (Progesterone receptor) was > 30 µM.
For COc1ccc2c3c1O[C@H]1C(=O)CC[C@@]4(O)[C@@H](C2)N(C)CC[C@]314 [OXYCODONE], the AC50 [1] was > 30 µM, the AC50 (Vasopressin V2 receptor) was > 30 µM and the AC50 [2] was > 30 µM. The AC50 (Estrogen receptor) was > 30 µM, the AC50 [3] was > 30 µM and the AC50 (Progesterone receptor) was > 30 µM.
In the case of CCCC(C)C1(CC)C(=O)NC(=O)NC1=O (stereo not given) [PENTOBARBITAL], the AC50 [1] is reported as > 30 µM, the AC50 (Vasopressin V2 receptor) is reported as > 10 µM and the AC50 [2] is reported as > 10 µM. The AC50 (Estrogen receptor) was > 10 µM, the AC50 [3] was > 30 µM and the AC50 [4] was 19 µM. The AC50 (Progesterone receptor) was > 10 µM.
In the case of O=C(O)C[C@H](O)C[C@H](O)/C=C/c1c(C2CC2)nc2ccccc2c1-c1ccc(F)cc1 [PITAVASTATIN], the AC50 [1] is reported as > 30 µM, the AC50 (Vasopressin V2 receptor) is reported as > 10 µM and the AC50 [2] is reported as > 30 µM. The AC50 (Estrogen receptor) was > 10 µM, the AC50 [3] was > 30 µM and the AC50 [4] was > 30 µM. The AC50 (Progesterone receptor) was > 30 µM.
For CC(CC(c1ccccc1)c1ccccc1)NC(C)(C)C (stereo not given) [TERODILINE], the AC50 [1] was > 30 µM, the AC50 (Vasopressin V2 receptor) was > 30 µM and the AC50 [2] was 3.1 µM. For the same molecule, the AC50 (Estrogen receptor) was > 30 µM, the AC50 [4] was > 30 µM and the AC50 (Progesterone receptor) was > 30 µM.
With C[C@H](CSC(=O)c1ccccc1)C(=O)N1C[C@@H](Sc2ccccc2)C[C@H]1C(=O)O [ZOFENOPRIL] the AC50 (Vasopressin V2 receptor) was > 10 µM, the AC50 [2] was > 10 µM and the AC50 (Estrogen receptor) was > 10 µM. The AC50 [3] was > 30 µM, the AC50 [4] was > 30 µM and the AC50 (Progesterone receptor) was > 10 µM.
